Where two headings read alike, the source gives them in different places.
Assays:
Format in all cases: in vivo
[1] = tested on: velvetleaf (Abutilon theophrasti); test: Test A pre-/postemergence plant response
In short: (§1)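 Soil: loam blended with sand. Formulation: non-phytotoxic solvent mixture plus surfactant, applied as preemergence directed soil spray and as postemergence spray. Scoring: visual, 0 no effect to 100 complete control, roughly 10 days post-treatment in greenhouse.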

[2] = tested on: barnyardgrass (Echinochloa crus-galli); test: Test A pre-/postemergence plant response; details: Echinochloa crus-galli, 240 h, read-out: Plant response rating, Barnyardgrass; for pest or weed control at 125 g/ha: 125 g ai/ha; for pest or weed control at 500 g/ha: 500 g ai/ha
In short: as §1

[3] = tested on: corn (Zea mays); test: Test A pre-/postemergence plant response; details: Zea mays, 240 h; for Corn plant response rating (crop injury, 0 = no effect, 100 = complete kill) at 125 g/ha: 125 g ai/ha; for Corn plant response rating (crop injury, 0 = no effect, 100 = complete kill) at 500 g/ha: 500 g ai/ha
In short: as §1

[4] = tested on: morningglory (Ipomoea coccinea); test: Test A pre-/postemergence plant response
In short: as §1

[5] = tested on: giant foxtail (Setaria faberi); test: Test A pre-/postemergence plant response; details: Setaria faberi, 240 h, read-out: Plant response rating, Foxtail, Giant; for pest or weed control at 125 g/ha: 125 g ai/ha; for pest or weed control at 500 g/ha: 500 g ai/ha
In short: as §1

[6] = tested on: wheat (Triticum aestivum); test: Test A pre-/postemergence plant response; details: Triticum aestivum, 240 h, read-out: Plant response rating, Wheat; for plant injury at 125 g/ha: 125 g ai/ha; for plant injury at 500 g/ha: 500 g ai/ha
In short: as §1

[7] = tested on: pigweed (Amaranthus retroflexus); test: Test A pre-/postemergence plant response; details: Amaranthus retroflexus, 240 h, read-out: Plant response rating, Pigweed; for pest or weed control at 125 g/ha: 125 g ai/ha; for pest or weed control at 500 g/ha: 500 g ai/ha
In short: as §1

[8] = tested on: large crabgrass (Digitaria sanguinalis); test: Test A pre-/postemergence plant response; details: Digitaria sanguinalis, 240 h, read-out: Plant response rating, Crabgrass, Large; for pest or weed control at 125 g/ha: 125 g ai/ha; for pest or weed control at 500 g/ha: 500 g ai/ha
In short: as §1

[9] = tested on: winter barley (Hordeum vulgare); test: Test B postemergence plant response; details: Postemergence
In short: (§2)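 Emerged plants, 1- to 4-leaf stage, treated; greenhouse 13–15 d; eye-scored vs untreated controls (0–100 scale).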

[10] = tested on: canarygrass (Phalaris minor); test: Test B postemergence plant response; details: Postemergence
In short: as §2

[11] = tested on: windgrass (Apera spica-venti); test: Test B postemergence plant response; details: Postemergence
In short: as §2

[12] = tested on: chickweed (Stellaria media); test: Test B postemergence plant response; details: Postemergence
In short: as §2

[13] = tested on: barnyardgrass (Echinochloa crus-galli); test: Test B flooded paddy test plant response; details: Echinochloa crus-galli, read-out: Plant response rating, Barnyardgrass
In short: (§3)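 Rice, umbrella sedge, ducksalad and barnyardgrass at 2-leaf stage; pots flooded to 3 cm, compounds applied into paddy water, depth held throughout. Greenhouse 13 to 15 days, then visual rating vs untreated controls on 0–100 scale (0 no effect, 100 complete control); dash means no test result.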

[14] = tested on: umbrella sedge (Cyperus difformis); test: Test B flooded paddy test plant response; details: Cyperus difformis, read-out: Plant response rating, Sedge, Umbrella
In short: as §3

[15] = Postemergence, 125 g ai/ha, 0 to 100 scale, 0 no effect, 100 complete control
[16] = Postemergence, 500 g ai/ha, 0 to 100 scale, 0 no effect, 100 complete control
[17] = Preemergence, 125 g ai/ha, 0 to 100 scale (0 no effect, 100 complete control)
[18] = Preemergence, 500 g ai/ha, 0 to 100 scale (0 no effect, 100 complete control)
[19] = post-emergence, Postemergence, 0 to 100 scale, 0 no effect, 100 complete control
[20] = pre-emergence, Preemergence, 0 to 100 scale (0 no effect, 100 complete control)
[21] = 31 g ai/ha, scale 0 to 100, 0 no effect, 100 complete control
[22] = Flood (flooded paddy test), 62 g ai/ha, scale 0 to 100, 0 no effect, 100 complete control
[23] = Flood (flooded paddy test), 125 g ai/ha, scale 0 to 100, 0 no effect, 100 complete control
[24] = Flood (flooded paddy test), 250 g ai/ha, scale 0 to 100, 0 no effect, 100 complete control
[25] = Flood, 31 g ai/ha, scale 0 to 100

CCc1cc(-c2ccc(C(F)(F)F)cc2)nn1-c1c(O)cnn(C)c1=O [Compound 11, 4-[5-ethyl-3-[4-(trifluoromethyl)phenyl]-1H-pyrazol-1-yl]-5-hydroxy-2-methyl-3(2H)-pyridazinone]
Plant response rating, Velvetleaf [1, 15]: 0
Plant response rating, Velvetleaf [1, 16]: 0
Plant response rating, Velvetleaf [1, 17]: 0
Plant response rating, Velvetleaf [1, 18]: 0
pest or weed control at 125 g/ha [2, 19]: 100%
pest or weed control at 500 g/ha [2, 19]: 100%
pest or weed control at 125 g/ha [2, 20]: 100%
pest or weed control at 500 g/ha [2, 20]: 100%
Corn plant response rating (crop injury, 0 = no effect, 100 = complete kill) at 125 g/ha [3, 19]: 90%
Corn plant response rating (crop injury, 0 = no effect, 100 = complete kill) at 500 g/ha [3, 19]: 90%
Corn plant response rating (crop injury, 0 = no effect, 100 = complete kill) at 125 g/ha [3, 20]: 90%
Corn plant response rating (crop injury, 0 = no effect, 100 = complete kill) at 500 g/ha [3, 20]: 100%
Plant response rating, Morningglory [4, 15]: 0
Plant response rating, Morningglory [4, 16]: 0
Plant response rating, Morningglory [4, 17]: 0
Plant response rating, Morningglory [4, 18]: 30
pest or weed control at 125 g/ha [5, 19]: 90%
pest or weed control at 500 g/ha [5, 19]: 100%
pest or weed control at 125 g/ha [5, 20]: 100%
pest or weed control at 500 g/ha [5, 20]: 100%
plant injury at 125 g/ha [6, 19]: 80%
plant injury at 500 g/ha [6, 19]: 100%
plant injury at 125 g/ha [6, 20]: 100%
plant injury at 500 g/ha [6, 20]: 100%
pest or weed control at 125 g/ha [7, 19]: 0%
pest or weed control at 500 g/ha [7, 19]: 0%
pest or weed control at 125 g/ha [7, 20]: 0%
pest or weed control at 500 g/ha [7, 20]: 30%
pest or weed control at 125 g/ha [8, 19]: 90%
pest or weed control at 500 g/ha [8, 19]: 100%
pest or weed control at 125 g/ha [8, 20]: 100%
pest or weed control at 500 g/ha [8, 20]: 100%
Plant response rating, Barley ([9]; 16 g ai/ha, scale 0 to 100, 0 no effect, 100 complete control): 90
Plant response rating, Barley [9, 21]: 95
Plant response rating, Barley ([9]; 62 g ai/ha, scale 0 to 100): 100
Plant response rating, Barley ([9]; 125 g ai/ha, scale 0 to 100): 100
Plant response rating, Canarygrass ([10]; 16 g ai/ha, scale 0 to 100): 80
Plant response rating, Canarygrass [10, 21]: 100
Plant response rating, Canarygrass ([10]; 62 g ai/ha, scale 0 to 100): 100
Plant response rating, Canarygrass ([10]; 125 g ai/ha, scale 0 to 100): 100
Plant response rating, Windgrass ([11]; 16 g ai/ha, scale 0 to 100): 100
Plant response rating, Windgrass [11, 21]: 100
Plant response rating, Windgrass ([11]; 62 g ai/ha, scale 0 to 100): 100
Plant response rating, Windgrass ([11]; 125 g ai/ha, scale 0 to 100): 100
Plant response rating, Chickweed ([12]; 16 g ai/ha, scale 0 to 100): 0
Plant response rating, Chickweed [12, 21]: 0
Plant response rating, Chickweed ([12]; 62 g ai/ha, scale 0 to 100): 0
Plant response rating, Chickweed ([12]; 125 g ai/ha, scale 0 to 100): 0
pest or weed control at 62 g/ha [13, 22]: 50%
pest or weed control at 125 g/ha [13, 23]: 65%
pest or weed control at 250 g/ha [13, 24]: 75%
pest or weed control at 31 g/ha [13, 25]: 40%
pest or weed control at 62 g/ha [14, 22]: 30%
pest or weed control at 125 g/ha [14, 23]: 40%
pest or weed control at 250 g/ha [14, 24]: 40%
pest or weed control at 31 g/ha [14, 25]: 30%

Source: US20100267561A1, “HERBICIDAL PYRIDAZINONE DERIVATIVES” (priority 2007, published 2010)
